This series can be described thus: recombinant UMI read abundance after kanamycin selection (control-corrected) (log10(CPM+1)); higher = more efficient recombination; extreme values may be limits of the assay; sequences stand for … in AGTGCAGAGAAAATCGGCCAGTTTTCTCTGCCTGCAGTCCGCATGCCGTGGGACCCCTTGGGTTCTAACCTGTTGCCTAGATTTATGCAGCGGACTGCCTTTCTCCCAAAGTGATAAACCGG…AGGTTGGTTTCACT; site = the 11-nt donor. Summed up: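 Reported values are log10(CPM+1) from a pooled Escherichia coli screen of donor and donor-binding-loop pairs for the IS621 bridge recombinase. Selection used IPTG (0.07 mM) plus kanamycin, against unselected plating, each in two replicates. Recombinant UMIs were amplified across the donor–target junction, sequenced, converted to CPM, averaged over replicates and scaled by control-derived factors.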
Consider “ATTACGGCATGGACCGGTTTTCCCGGTAATCCGTATTTGGA (site ATTACGGCTTC)”, for which the “recombinant UMI read abundance (log10)” value amounted to 0.269.
For “ATTACTTCATGGACCGGTTTTCCCGGTAATCCGTATTTGGG (site ATTACTTCTCC)” the value was 0.434; for “ATTAGAACATGGACCGGTTTTCCCGGTAATCCGTATTTGGC (site ATTAGAACTGC)”, 1.83; for “ATTAGAACATGGACCGGTTTTCCCGGTAATCCGTATTTGGC (site CTTAGAACTGC)”, 1.73.
Consider “ATTAGAACATGGACCGGTTTTCCCGGTAATCCGTATTTGGC (site GTTAGAACTGC)”, for which the “recombinant UMI read abundance (log10)” value was found to be 0.
“ATTAGAACATGGACCGGTTTTCCCGGTAATCCGTATTTGGC (site TTTAGAACTGC)”: the “recombinant UMI read abundance (log10)” value is 1.19.
“ATTAGTGCATGGACCGGTTTTCCCGGTAATCCGTATTTGGT (site AATAGTGCTAC)”: the “recombinant UMI read abundance (log10)” value was 0.125.
On to “ATTAGTGCATGGACCGGTTTTCCCGGTAATCCGTATTTGGT (site ACTAGTGCTAC)”, for which the “recombinant UMI read abundance (log10)” value is 0.675.
On to “ATTAGTGCATGGACCGGTTTTCCCGGTAATCCGTATTTGGT (site AGTAGTGCTAC)”, for which the “recombinant UMI read abundance (log10)” value stood at 0.243.
Consider “ATTAGTGCATGGACCGGTTTTCCCGGTAATCCGTATTTGGT (site ATTAGTGCTAC)”, for which the “recombinant UMI read abundance (log10)” value came out at 1.05.
For the sequence “ATTCCGGCATGGACCGGTTTTCCCGGTAATCCGTATTTGCT (site ATTCCGGCTAG)”, the “recombinant UMI read abundance (log10)” value was 0.0043.
In the case of “ATTCGAACATGGACCGGTTTTCCCGGTAATCCGTATTTGTT (site ATTCGAACTAA)”, the “recombinant UMI read abundance (log10)” value worked out at 0.18.
As for “ATTCGTGCATGGACCGGTTTTCCCGGTAATCCGTATTTGAT (site ATTCGTGCTAT)”, the “recombinant UMI read abundance (log10)” value amounted to 0.866.
For “ATTCGTGCATGGACCGGTTTTCCCGGTAATCCGTATTTGTA (site ATTCGTGCTTA)” the value was 0.657; for “ATTCGTGCATGGACCGGTTTTCCCGGTAATCCGTATTTGTG (site ATTCGTGCTCA)”, 0.309; for “ATTCTTACATGGACCGGTTTTCCCGGTAATCCGTATTTGGT (site ATTCTTACTAC)”, 0.37.
For “ATTGTATCATGGACCGGTTTTCCCGGTAATCCGTATTTGAG (site ATTGTATCTCT)” the value was 1.59; for “ATTTAAACATGGACCGGTTTTCCCGGTAATCCGTATTTGAC (site ATTTAAACTGT)”, 1.18; for “ATTTAGACATGGACCGGTTTTCCCGGTAATCCGTATTTGGT (site ATTAAGACTAC)”, 0.513.
“ATTTAGACATGGACCGGTTTTCCCGGTAATCCGTATTTGGT (site ATTCAGACTAC)”: the “recombinant UMI read abundance (log10)” value came to 0.475.
With “ATTTAGACATGGACCGGTTTTCCCGGTAATCCGTATTTGGT (site ATTGAGACTAC)”, the “recombinant UMI read abundance (log10)” value turned out to be 0.0177.
On to “ATTTAGACATGGACCGGTTTTCCCGGTAATCCGTATTTGGT (site ATTTAGACTAC)”, for which the “recombinant UMI read abundance (log10)” value came out at 0.955.
On to “ATTTAGGCATGGACCGGTTTTCCCGGTAATCCGTATTTGGC (site ATATAGGCTGC)”, for which the “recombinant UMI read abundance (log10)” value is 1.64.
For “ATTTAGGCATGGACCGGTTTTCCCGGTAATCCGTATTTGGC (site ATCTAGGCTGC)” the value was 0.928; for “ATTTAGGCATGGACCGGTTTTCCCGGTAATCCGTATTTGGC (site ATGTAGGCTGC)”, 0.42.
In the case of “ATTTAGGCATGGACCGGTTTTCCCGGTAATCCGTATTTGGC (site ATTTAGGCTGC)”, the “recombinant UMI read abundance (log10)” value is 1.93.
Take “ATTTATTCATGGACCGGTTTTCCCGGTAATCCGTATTTGAG (site ATTTATTCTCT)”: the “recombinant UMI read abundance (log10)” value was found to be 1.61.
“ATTTCACCATGGACCGGTTTTCCCGGTAATCCGTATTTGGC (site ATTTCACCTGC)”: the “recombinant UMI read abundance (log10)” value was found to be 0.
“ATTTCTACATGGACCGGTTTTCCCGGTAATCCGTATTTGTC (site ATTTCTACTGA)”: the “recombinant UMI read abundance (log10)” value stood at 0.00552.
For the sequence “ATTTGAGCATGGACCGGTTTTCCCGGTAATCCGTATTTGCG (site ATTTGAGCTCG)”, the “recombinant UMI read abundance (log10)” value worked out at 0.336.
As to “ATTTGTTCATGGACCGGTTTTCCCGGTAATCCGTATTTGGA (site ATTTGTTCTTC)”, the “recombinant UMI read abundance (log10)” value was determined as 1.4.
On to “CAAAAGCCATGGACCGGTTTTCCCGGTAATCCGTATTTGTC (site CAAAAGCCTGA)”, for which the “recombinant UMI read abundance (log10)” value amounted to 0.
Consider “CAAAATACATGGACCGGTTTTCCCGGTAATCCGTATTTGGC (site CAAAATACTGC)”, for which the “recombinant UMI read abundance (log10)” value was found to be 0.
For “CAAACACCATGGACCGGTTTTCCCGGTAATCCGTATTTGAC (site CAAACACCTGT)”, the “recombinant UMI read abundance (log10)” value came to 0.00914.
Regarding “CAAACGACATGGACCGGTTTTCCCGGTAATCCGTATTTGTT (site CAAACGACTAA)”, the “recombinant UMI read abundance (log10)” value came to 1.41.
As for “CAAAGCTCATGGACCGGTTTTCCCGGTAATCCGTATTTGAA (site CAAAGCTCTTT)”, the “recombinant UMI read abundance (log10)” value stood at 3.18.
For the sequence “CAAAGCTCATGGACCGGTTTTCCCGGTAATCCGTATTTGAA (site CAACGCTCTTT)”, the “recombinant UMI read abundance (log10)” value stood at 0.0122.
As to “CAAAGCTCATGGACCGGTTTTCCCGGTAATCCGTATTTGAA (site CAAGGCTCTTT)”, the “recombinant UMI read abundance (log10)” value is 0.579.
As to “CAAAGCTCATGGACCGGTTTTCCCGGTAATCCGTATTTGAA (site CAATGCTCTTT)”, the “recombinant UMI read abundance (log10)” value was 0.0194.
For “CAAATACCATGGACCGGTTTTCCCGGTAATCCGTATTTGAC (site CAAATACCTGT)”, the “recombinant UMI read abundance (log10)” value amounted to 0.
For “CAAATCCCATGGACCGGTTTTCCCGGTAATCCGTATTTGGA (site CAAATCCCTTC)”, the “recombinant UMI read abundance (log10)” value is 0.334.
For the sequence “CAAATCTCATGGACCGGTTTTCCCGGTAATCCGTATTTGCA (site CAAATCTCTTG)”, the “recombinant UMI read abundance (log10)” value amounted to 1.85.
Turning to “CAACAACCATGGACCGGTTTTCCCGGTAATCCGTATTTGAA (site CAACAACCTTT)”, the “recombinant UMI read abundance (log10)” value came to 0.102.
As for “CAACACACATGGACCGGTTTTCCCGGTAATCCGTATTTGTG (site CAACACACTCA)”, the figure is 0.834.
On to “CAACGCTCATGGACCGGTTTTCCCGGTAATCCGTATTTGAA (site CAAAGCTCTTT)”, for which the “recombinant UMI read abundance (log10)” value is 0.00291.
Regarding “CAACGCTCATGGACCGGTTTTCCCGGTAATCCGTATTTGAA (site CAACGCTCTTT)”, the “recombinant UMI read abundance (log10)” value was determined as 2.06.
In the case of “CAACGCTCATGGACCGGTTTTCCCGGTAATCCGTATTTGAA (site CAAGGCTCTTT)”, the “recombinant UMI read abundance (log10)” value came out at 0.00387.
On to “CAACGCTCATGGACCGGTTTTCCCGGTAATCCGTATTTGAA (site CAATGCTCTTT)”, for which the “recombinant UMI read abundance (log10)” value was 0.0343.
As for “CAACTCCCATGGACCGGTTTTCCCGGTAATCCGTATTTGCT (site CAAATCCCTAG)”, the figure is 0.818; as for “CAACTCCCATGGACCGGTTTTCCCGGTAATCCGTATTTGCT (site CAACTCCCTAG)”, 1.86.
For “CAACTCCCATGGACCGGTTTTCCCGGTAATCCGTATTTGCT (site CAAGTCCCTAG)” the value was 0.00625.
As for “CAACTCCCATGGACCGGTTTTCCCGGTAATCCGTATTTGCT (site CAATTCCCTAG)”, the “recombinant UMI read abundance (log10)” value amounted to 0.765.
In the case of “CAACTTTCATGGACCGGTTTTCCCGGTAATCCGTATTTGGT (site CAACTTTCTAC)”, the “recombinant UMI read abundance (log10)” value was found to be 0.82.
As for “CAAGATTCATGGACCGGTTTTCCCGGTAATCCGTATTTGTT (site AAAGATTCTAA)”, the “recombinant UMI read abundance (log10)” value is 0.
For “CAAGATTCATGGACCGGTTTTCCCGGTAATCCGTATTTGTT (site CAAGATTCTAA)” the value was 3.22.
In the case of “CAAGATTCATGGACCGGTTTTCCCGGTAATCCGTATTTGTT (site GAAGATTCTAA)”, the “recombinant UMI read abundance (log10)” value is 0.
For “CAAGATTCATGGACCGGTTTTCCCGGTAATCCGTATTTGTT (site TAAGATTCTAA)” the value was 0.464; for “CAAGCGCCATGGACCGGTTTTCCCGGTAATCCGTATTTGCG (site CAAGCGCCTCA)”, 0.0343.
For the sequence “CAAGCGCCATGGACCGGTTTTCCCGGTAATCCGTATTTGCG (site CAAGCGCCTCC)”, the “recombinant UMI read abundance (log10)” value came out at 0.0171.
Regarding “CAAGCGCCATGGACCGGTTTTCCCGGTAATCCGTATTTGCG (site CAAGCGCCTCG)”, the “recombinant UMI read abundance (log10)” value was 2.05.
As to “CAAGCGCCATGGACCGGTTTTCCCGGTAATCCGTATTTGCG (site CAAGCGCCTCT)”, the “recombinant UMI read abundance (log10)” value worked out at 0.00392.
As for “CAAGCGCCATGGACCGGTTTTCCCGGTAATCCGTATTTGTC (site CAAGCGCCTAA)”, the figure is 0.486.
As for “CAAGCGCCATGGACCGGTTTTCCCGGTAATCCGTATTTGTC (site CAAGCGCCTCA)”, the “recombinant UMI read abundance (log10)” value came out at 0.42.
For the sequence “CAAGCGCCATGGACCGGTTTTCCCGGTAATCCGTATTTGTC (site CAAGCGCCTGA)”, the “recombinant UMI read abundance (log10)” value turned out to be 2.51.
In the case of “CAAGCGCCATGGACCGGTTTTCCCGGTAATCCGTATTTGTC (site CAAGCGCCTTA)”, the “recombinant UMI read abundance (log10)” value came out at 0.529.
As for “CAAGCGGCATGGACCGGTTTTCCCGGTAATCCGTATTTGTG (site CAAGCGACTCA)”, the figure is 1.37.
Regarding “CAAGCGGCATGGACCGGTTTTCCCGGTAATCCGTATTTGTG (site CAAGCGCCTCA)”, the “recombinant UMI read abundance (log10)” value is 0.00533.
Turning to “CAAGCGGCATGGACCGGTTTTCCCGGTAATCCGTATTTGTG (site CAAGCGGCTCA)”, the “recombinant UMI read abundance (log10)” value was found to be 0.904.

For the origin of these results see the supplement of paper PMC11208160.
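Note: IS621 bridge recombinase in Escherichia coli cells against a fixed T5 target plasmid.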
